Assay [1] concerns the target T1, CepR (Burkholderia cenocepacia, UniProt B4EMD0).
T1 sequence (B4EMD0 1-239): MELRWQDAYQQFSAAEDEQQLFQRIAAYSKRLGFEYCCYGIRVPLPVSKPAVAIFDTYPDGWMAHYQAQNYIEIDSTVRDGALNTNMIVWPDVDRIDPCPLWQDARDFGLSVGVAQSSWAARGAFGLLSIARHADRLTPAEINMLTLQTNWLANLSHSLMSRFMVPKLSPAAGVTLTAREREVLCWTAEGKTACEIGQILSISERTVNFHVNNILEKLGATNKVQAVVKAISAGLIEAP
As to the kind of experiment: CepR agonism in E. coli β-galactosidase reporter (Ec-reporter) JLD271 [pJN105-cepR + pSC11-cepI]. Format: cell-based, B. cenocepacia. To be noted: for pEC50 / EC50 (nM): agonism dose-response; for Emax: read-out: Maximal Activation (%); for activation at 100 µM / Act%: Table S2, Ec-reporter, screening conc. 100 μM. In short, it runs like this: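 E. coli JLD271 (ΔsdiA) carrying arabinose-inducible CepR (27 mM L-arabinose) and cepI-lacZ fusion, grown 4 h with compound; β-galactosidase measured by CPRG cleavage at 37 °C (~30 min), normalized to OD600. Agonism compared with C8-AHL at 100 μM; screen at 100 μM or solubility limit, then dose-response; ≥3 trials.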

The target in assay [2] is T1, CepR. As to the kind of experiment: CepR antagonism in E. coli β-galactosidase reporter (Ec-reporter), competition against C8-AHL. Format: cell-based, B. cenocepacia. To be noted: against 10 nM C8-AHL; for inhibition at 100 µM: read-out: Inh% (100-Act%); for pIC50 / Maximal Inhibition (%): Ec-reporter. The procedure, abridged: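 CepR antagonism was measured in E. coli JLD271 (∆sdiA) carrying pJN105-cepR, which expresses B. cenocepacia CepR from an arabinose-inducible pBAD promoter, and pSC11-cepI, which fuses lacZ to the cepI promoter. Induced cells were grown 4 h with compound and 10 nM C8-AHL. β-Galactosidase activity was then read by CPRG cleavage at 37 °C after Z Buffer permeabilization.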

The next assay has as its system B. multivorans ATCC17616. Briefly: Swimming motility assay (0.3% agar). It is filed as cell-based. The note with it: 50 μM compound, 72 h, untreated = 100%. Here is the method: We were interested to assess the effects of our lead CepR modulators on a phenotype under the control of QS in B. multivorans. However, very little work has been reported to directly link CepR activity in B. multivorans to any QS-controlled phenotype. […] Therefore, we chose to study the effects of compound treatment on both the swarming and swimming motility of B. multivorans (B. multivorans ATCC17616; see Methods).
Figure 3 B. multivorans motility assay data. Swimming motility was measured by spotting B. multivorans plus compound indicated in the center of M9 + 0.1% casamino acids + 0.3% agar in a 10 cm diameter petri dish. Area of the colony after 72 h incubation was calculated using ImageJ, normalized to the B. multivorans wild-type + vehicle (DMSO), and listed above each plate shown. TEXT PRINTED IN THE PICTURE: C8-AHL: 182% | E32: 195% | E35: 175% | E37: 173% | DMSO: 100% | A12: 55% | B12: 53% | E3: 58%
The motility assay was based on a previously reported procedure. B. multivorans was grown overnight with 50 μM compound at 37 °C and normalized to OD600 = 0.4, and then cells were washed with sterile water and resuspended with 50 μM fresh compound. Cells (5 μL) were spotted in the center of M9 + 0.1% Casamino Acids + 0.3% agar plates (100 mm diameter). Cells were grown for 72 h at 37 °C. Images were analyzed using ImageJ to calculate the area of the colony and normalized to the area of B. multivorans wild-type + vehicle (DMSO).

Setting [3] is: Ec-reporter, activity for 100 μM C8-AHL set to 100%, error ±10%.
[4] abbreviates: Table S3, Ec-reporter, screening conc. 100 μM.

Structures are written as SMILES. pEC50, pIC50: −log10 of the molar value. Several values for one entry are separate records, joined by “and”; a condition that tells them apart may be missing. Equal values may be shown once.

In the case of `O=C(CCc1ccc(I)cc1)N[C@H]1CCOC1=O` [Compound E32], on CepR [1] (Ec-reporter), the pEC50 is 8.96. For the same compound, the Emax on CepR [1] (setting [3]) is 97%. The activation at 100 µM at CepR [1] was 97%. The inhibition at 100 µM on CepR [2] (setting [4]) is -20%. In addition, in the assay with B. multivorans ATCC17616, the “Swimming motility, area of the colony normalized to B. multivorans wild-type + vehicle (DMSO)” value is 195%.
Take `O=C(CCc1ccc([N+](=O)[O-])cc1)N[C@H]1CCOC1=O` [Compound E37]: at CepR [1] (Ec-reporter), the negative logarithm of the EC50 (pEC50) is 9.72 and the “EC50 (nM)” value was “sub-nanomolar”. In addition, on CepR [1] (setting [3]), the Emax was 95%. Moreover, on CepR [1], the activation at 100 µM came to 95%. The inhibition at 100 µM at CepR [2] (setting [4]) was -30%. Besides, in the assay on B. multivorans ATCC17616, the “Swimming motility, area of the colony normalized to B. multivorans wild-type + vehicle (DMSO)” value is 173%.
`CCCCCC(O)CC(=O)N[C@H]1CCOC1=O` (some centres unmarked) [3’OH-C8-AHL, reference compound]: on CepR [1] (Ec-reporter), the pEC50 was 6.68. Also, the “Maximal Activation (%)” value at CepR [1] (setting [3]) stood at 84%. Besides, the Act% at CepR [1] is 84%. Further, the “Inh% (100-Act%)” value on CepR [2] (setting [4]) is reported as -20%.
Regarding `O=C(Cc1cccc(Br)c1)N[C@H]1CCOC1=O` [Compound C8], at CepR [1], the Act% came out at 12%. For the same compound, at CepR [2], the pIC50 was 5.57 and the “Maximal Inhibition (%)” value stood at 79%.
Take `CCCCCCCC(=O)N[C@H]1CCOC1=O` [Compound C8-AHL, N-octanoyl L-homoserine lactone, reference compound]: the “EC50 fold higher in the Ec-reporter than in the Bm-reporter” value on CepR [1] (Ec- vs Bm-reporter) is reported as ~ 10 fold. On CepR [1] (Ec-reporter), the pEC50 is 8.30 and 8.24. Further, the Emax on CepR [1] (setting [3]) came out at 100%. Moreover, on CepR [1], the activation at 100 µM stood at 100%. Moreover, the inhibition at 100 µM on CepR [2] (setting [4]) was -30%. In the assay with B. multivorans ATCC17616, the “Swimming motility, area of the colony normalized to B. multivorans wild-type + vehicle (DMSO)” value turned out to be 182%.
Take `O=C(CC1CCCC1)N[C@H]1CCOC1=O` [Compound B12]: the activation at 100 µM on CepR [1] came to 39%. In addition, on CepR [2], the pIC50 was 5.43 and the “Maximal Inhibition (%)” value is listed as 69%. Besides, the “Swimming motility, area of the colony normalized to B. multivorans wild-type + vehicle (DMSO)” value in the assay on B. multivorans ATCC17616 is reported as 53%.
For the compound `CCCCCCCS(=O)(=O)N[C@H]1CCOC1=O` [Compound A12], the “CepR agonism in words” value on CepR [1] (Ec-reporter) is reported as “failed to activate CepR”. At CepR [1] (setting [3]), the Emax amounted to 46%. For the same compound, at CepR [1], the activation at 100 µM was 46%. Moreover, on CepR [2], the pIC50 is 6.42 and the “Maximal Inhibition (%)” value is 68%. Besides, the “Swimming motility, area of the colony normalized to B. multivorans wild-type + vehicle (DMSO)” value with B. multivorans ATCC17616 is given as 55%.
On to `O=C(CCc1ccc(C(F)(F)F)cc1)N[C@H]1CCOC1=O` [Compound E35], for which, on CepR [1] (Ec-reporter), the pEC50 is 9.74 and the “EC50 (nM)” value was “sub-nanomolar”. Further, the Emax on CepR [1] (setting [3]) turned out to be 100%. Moreover, on CepR [1], the activation at 100 µM was found to be 100%. Moreover, on CepR [2] (setting [4]), the inhibition at 100 µM is -50%. Also, the “Swimming motility, area of the colony normalized to B. multivorans wild-type + vehicle (DMSO)” value with B. multivorans ATCC17616 is 175%.
With `O=C(Cc1cccc(C(F)(F)F)c1)N[C@H]1CCOC1=O` [Compound E3], the activation at 100 µM at CepR [1] was determined as 6.6%. At CepR [2], the pIC50 was 5.48 and the “Maximal Inhibition (%)” value is 77%. For the same compound, the “Swimming motility, area of the colony normalized to B. multivorans wild-type + vehicle (DMSO)” value in the assay on B. multivorans ATCC17616 was found to be 58%.

Broadly, the pEC50 is −log10 of the EC50, conventionally taken in molar units. Broadly, the pIC50 is the negative decadic logarithm of the IC50, by convention in mol/L.

Source of the values: paper PMC6748986, “Potent modulation of the CepR quorum sensing receptor and virulence in a Burkholderia cepacia complex member using non-native lactone ligands” (Scientific Reports, 2019).
